# Tested on: SMNDC1_12PC RNA (5′-UTR SMNDC1 mRNA G quadruplex)
# Assay: Steady-state fluorescence spectroscopy titration, PC reporter quenching
# Type: binding
# Settings: BSA titrated into SMNDC1_12PC RNA, control experiment, Supplemental Figure 1D
substance,measurement,value
bovine serum albumin [BSA],change of steady state fluorescence of PC reporter (non-specific control),did not change

# Reference: paper PMC5544254 (Molecular bioSystems, 2017)
